Data taken from ChEMBL document CHEMBL1212883, “Limonoids from the leaves of Cipadessa baccifera” (J Nat Prod, 2010).

Tests used:
Assay type in all cases: functional, cell-based
MCF7 = assay: Cytotoxicity against human MCF7 cells after 72 hrs by MTT assay; details: MCF7, 72 h
HL-60 = assay: Cytotoxicity against human HL60 cells after 72 hrs by MTT assay; details: HL-60, 72 h
SW480 = assay: Cytotoxicity against human SW480 cells after 72 hrs by MTT assay; details: SW480, 72 h
A549 = assay: Cytotoxicity against human A549 cells after 72 hrs by MTT assay; details: A549, 72 h
SMMC-7721 = assay: Cytotoxicity against human SMMC7721 cells after 72 hrs by MTT assay; details: SMMC-7721, 72 h

| Structure (SMILES) | IC50 (MCF7) [µM] | IC50 (HL-60) [µM] | IC50 (SW480) [µM] | IC50 (A549) [µM] | IC50 (SMMC-7721) [µM] |
| --- | --- | --- | --- | --- | --- |
| CC(=O)O[C@H]1C[C@@H](OC(C)=O)[C@@]2(C)CO[C@H]3[C@@H](O)[C@]4(C)[C@H](CC[C@@]5(C)[C@H](c6ccoc6)OC(=O)[C@@H]6O[C@]645)[C@]1(C)[C@@H]32 [CIPADESIN J] | > 40 | > 40 | 20.2 | > 40 | 20.4 |
| CCC(C)C(=O)O[C@@H]1[C@@H]2OC[C@]3(C)[C@H](OC(C)=O)C[C@H](OC(C)=O)[C@](C)([C@H]4CC[C@@]5(C)[C@H](c6ccoc6)OC(=O)[C@@H]6O[C@@]65[C@]14C)[C@@H]23 (stereo not given in full) [CIPADESIN K] | > 40 | > 40 | 36.6 | > 40 | > 40 |
| CCC(C)C(=O)O[C@@H]1[C@@H]2OC[C@]3(C)[C@H](OC(C)=O)C[C@H](OC(C)=O)[C@@](C)([C@@H]23)[C@H]2CC[C@]3(C)C(=CC(=O)[C@H]3c3ccoc3)[C@]12C (stereo not given in full) [CIPADESIN L] | > 40 | > 40 | > 40 | > 40 | > 40 |
| CCC(C)C(=O)O[C@@H]1[C@@H]2OC[C@]3(C)[C@H](OC(C)=O)C[C@H](OC(C)=O)[C@](C)([C@H]4CC[C@@]5(C)[C@H](c6ccoc6)C(=O)[C@@H]6O[C@@]65[C@]14C)[C@@H]23 (stereo not given in full) [CIPADESIN M] | > 40 | > 40 | > 40 | > 40 | > 40 |
| CCC(C)C(=O)O[C@H]1C(C)(C)[C@H](CC(=O)OC)[C@]2(C)C(=O)[C@@]1(O)CC1=C3CC(=O)O[C@@H](c4ccoc4)[C@]3(C)CC[C@@H]12 (stereo not given in full) [CIPADESIN N] | > 40 | > 40 | > 40 | > 40 | > 40 |
| CCC(C)C(=O)O[C@@H]1[C@H]2C(=O)[C@](C)(C3=CC[C@]4(C)[C@@H](CC(=O)O[C@H]4c4ccoc4)[C@]34O[C@H]24)[C@@H](CC(=O)OC)C1(C)C (stereo not given in full) [CIPADESIN O] | > 40 | > 40 | > 40 | > 40 | > 40 |
| C=C1[C@]2(O)C(=O)C[C@@]3(C)[C@H](c4ccoc4)OC(=O)C[C@]13O[C@H]1[C@@H](OC(C)=O)[C@@H](OC(C)=O)C(C)(C)[C@H](CC(=O)OC)[C@]12C [CIPADESIN P] | > 40 | > 40 | > 40 | > 40 | > 40 |
| C=C1[C@]2(O)CC[C@@]3(C)[C@H](c4ccoc4)OC(=O)C[C@]13O[C@H]1C[C@@H](OC(C)=O)C(C)(C)[C@H](CC(=O)OC)[C@]12C [CIPADESIN Q] | > 40 | > 40 | > 40 | > 40 | > 40 |
